Results published in article PMC3390974 (ACS medicinal chemistry letters, 2011).
pEC50: −log10 of the molar value.

Tests used:
Test in all cases: Gαq-mediated intracellular calcium mobilization
human 5-HT2A receptor = human 5-HT2A receptor (Homo sapiens, UniProt P28223); details: calcium flux, HEK-293
human 5-HT2B receptor = human 5-HT2B receptor (Homo sapiens, UniProt P41595); details: calcium flux, HEK-293
[1] = biological target: T1, human 5-HT2C (INI) receptor (Homo sapiens, UniProt P28335); details: for Emax: HEK293, read-out: 5-HT2C Emax, percentage of maximal activation by 5-HT, or activation at 10 μM for NA; for agonism at the 5-HT2C receptor (in words): calcium flux, HEK-293
T1 sequence (P28335 33-458): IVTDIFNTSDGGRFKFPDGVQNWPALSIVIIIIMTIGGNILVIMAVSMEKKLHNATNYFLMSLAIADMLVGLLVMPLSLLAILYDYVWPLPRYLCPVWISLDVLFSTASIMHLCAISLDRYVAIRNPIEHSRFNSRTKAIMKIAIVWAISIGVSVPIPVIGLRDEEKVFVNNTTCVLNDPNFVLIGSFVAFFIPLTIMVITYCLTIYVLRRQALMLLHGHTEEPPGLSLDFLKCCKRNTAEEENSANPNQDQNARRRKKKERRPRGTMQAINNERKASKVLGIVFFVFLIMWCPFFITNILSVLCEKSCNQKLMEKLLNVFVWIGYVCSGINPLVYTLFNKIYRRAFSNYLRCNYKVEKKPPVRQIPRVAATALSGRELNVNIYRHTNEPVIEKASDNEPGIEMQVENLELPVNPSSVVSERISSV

Sequence of human 5-HT2A receptor (P28223 whole entry): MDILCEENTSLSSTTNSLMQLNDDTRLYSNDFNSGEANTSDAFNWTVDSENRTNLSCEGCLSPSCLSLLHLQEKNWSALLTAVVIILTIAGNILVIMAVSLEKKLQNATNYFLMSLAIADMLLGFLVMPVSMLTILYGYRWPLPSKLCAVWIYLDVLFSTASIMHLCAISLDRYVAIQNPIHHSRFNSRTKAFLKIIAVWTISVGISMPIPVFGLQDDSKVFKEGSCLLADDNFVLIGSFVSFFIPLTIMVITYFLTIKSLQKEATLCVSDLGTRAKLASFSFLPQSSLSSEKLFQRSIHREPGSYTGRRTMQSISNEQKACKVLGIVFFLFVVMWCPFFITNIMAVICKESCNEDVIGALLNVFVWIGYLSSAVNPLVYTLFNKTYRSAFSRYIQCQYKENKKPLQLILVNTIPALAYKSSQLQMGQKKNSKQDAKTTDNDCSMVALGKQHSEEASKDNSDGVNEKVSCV
Sequence of human 5-HT2B receptor (P41595 whole entry): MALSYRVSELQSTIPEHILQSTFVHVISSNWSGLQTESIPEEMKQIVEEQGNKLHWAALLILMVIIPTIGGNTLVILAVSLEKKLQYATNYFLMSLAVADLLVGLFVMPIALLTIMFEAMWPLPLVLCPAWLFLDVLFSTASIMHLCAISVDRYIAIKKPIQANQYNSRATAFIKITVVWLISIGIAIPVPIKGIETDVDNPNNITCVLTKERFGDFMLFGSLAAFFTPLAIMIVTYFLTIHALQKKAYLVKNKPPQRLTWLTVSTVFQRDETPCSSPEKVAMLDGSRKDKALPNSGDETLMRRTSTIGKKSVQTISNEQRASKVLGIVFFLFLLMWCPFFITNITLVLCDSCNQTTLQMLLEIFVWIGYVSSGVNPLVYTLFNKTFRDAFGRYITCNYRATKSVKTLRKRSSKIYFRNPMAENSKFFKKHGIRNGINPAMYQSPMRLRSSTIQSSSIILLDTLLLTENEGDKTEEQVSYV

| Structure (SMILES) | agonism at the 5-HT2A receptor (in words) (human 5-HT2A receptor) | agonism at the 5-HT2B receptor (in words) (human 5-HT2B receptor) | agonism at the 5-HT2C receptor (in words) [1] | other results |
| --- | --- | --- | --- | --- |
| Cl.NC[C@H]1C[C@@H]1c1ccccc1OCC1CC1 (single isomer, unassigned) [(+)-11e, (+)-trans-[2-(2-cyclopropylmethoxyphenyl)cyclopropyl]methylamine hydrochloride] | activate neither | activate neither |  | agonism at the 5-HT2B receptor (in words) (human 5-HT2B receptor; listed as (+)-trans-[2-(2-cyclopropylmethoxyphenyl)cyclopropyl]methylamine hydrochloride): no detectable agonism |
| COc1ccc(-c2ccccc2C)cc1[C@H]1C[C@@H]1CN [Compound 9b] |  |  |  | pEC50 [1]: 5.42; Emax [1]: 64% |
| Cc1ccc(OCC(C)C)c([C@H]2C[C@@H]2CN)c1.Cl [Compound 10a] |  |  | much less potent |  |
| CCCCOc1ccc(C)cc1[C@H]1C[C@@H]1CN.Cl [Compound 10b] |  |  | much less potent |  |
| CC(C)COc1ccccc1[C@H]1C[C@@H]1CN.Cl [Compound 11c] |  | inactive |  |  |
| COc1ccc(-c2ccccc2)cc1[C@H]1C[C@@H]1CN [Compound 9a] |  |  |  | pEC50 [1]: 5.46; Emax [1]: 67% |
| CCCCc1ccc(-c2ccc(OC)c([C@H]3C[C@@H]3CN)c2)cc1.Cl [Compound 9h] | failure | failure | failure |  |
| Cl.NC[C@H]1C[C@@H]1c1ccccc1OCC1CC1 (racemic) [Compound 11e, trans-[2-(2-cyclopropylmethoxyphenyl)cyclopropyl]methylamine hydrochloride] |  | inactive |  |  |
| CCCCCOc1ccccc1[C@H]1C[C@@H]1CN.Cl [Compound 11d] | abolished agonist activity | abolished agonist activity | abolished agonist activity |  |
| Cl.NC[C@H]1C[C@@H]1c1ccccc1OCC1CCCCC1 [Compound 11g] | abolished agonist activity | abolished agonist activity | abolished agonist activity |  |
